For 9 molecules, IC50 results are on record in patent publication US10308652B2, “Tricyclic heterocyclic compounds useful as inhibitors of TNF” (BRISTOL-MYERS SQUIBB COMPANY, priority 2015, dated 2019).

As usually defined, the IC50 is the concentration that gives 50% inhibition. A high value points to a need for much substance.

In the assay the target is TNFα (Homo sapiens (Human), UniProt P01375). The experiment in a line: TNF induced HEK-Blue assay. The assay is classed as cell-based. The following applies: TNFα 0.5 ng/ml; HEK-Blue-CD40L cells, NF-κB-driven secreted alkaline phosphatase reporter; 18 h.
Sequence of TNFα (P01375 77-233): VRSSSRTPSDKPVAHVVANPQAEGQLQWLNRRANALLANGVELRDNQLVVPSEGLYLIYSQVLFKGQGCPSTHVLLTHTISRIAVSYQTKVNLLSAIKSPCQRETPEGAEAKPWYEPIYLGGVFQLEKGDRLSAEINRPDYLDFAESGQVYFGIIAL

`CC(C)(O)c1ncc(-c2ccc3nc4c(n3n2)C(c2ccccc2OC(F)F)OCC4)cn1` (stereo not drawn) [Example 63, 2-(5-(9-(2-(Difluoromethoxy)phenyl)-7,9-dihydro-6H-pyrano[4′,3′:4,5]imidazo[1,2-b]pyridazin-2-yl)pyrimidin-2-yl)propan-2-ol] came in with an IC50 of less than 1 µM. In turn, `Cn1cc(-c2ccc3nc4c(n3n2)C(c2ccccc2OC(F)F)OCC4)cn1` (stereo not drawn) [Example 64, 9-(2-(Difluoromethoxy)phenyl)-2-(1-methyl-1H-pyrazol-4-yl)-7,9-dihydro-6H-pyrano[4′,3′:4,5]imidazo[1,2-b]pyridazine] gave an IC50 of 1 to 10 µM. In the case of “(+/−)-cis-9-(2-(difluoromethoxy)phenyl)-2-(4-(2-hydroxybutan-2-yl)phenyl)-6,7,8,9-tetrahydropyrido[4′,3′:4,5]imidazo[1,2-b]pyridazin-6-ol [Example 50]”, the IC50 lay in the range of 1 to 10 µM. As for “(+/−)-cis-9-(2-(difluoromethoxy)phenyl)-2-(4-(3-hydroxypentan-3-yl)phenyl)-6,7,8,9-tetrahydropyrido[4′,3′:4,5]imidazo[1,2-b]pyridazin-6-ol [Example 49]”, the figure is 1 to 10 µM.

“(+/−)-cis-9-(2-(difluoromethoxy)phenyl)-2-(4-morpholinophenyl)-6,7,8,9-tetrahydropyrido[4′,3′:4,5]imidazo[1,2-b]pyridazin-6-ol [Example 45]”: the IC50 was 1 to 10 µM. On to “(+/−)-cis-9-(4-fluoro-2-methylphenyl)-2-(4-(2-hydroxypropan-2-yl)phenyl)-6,7,8,9-tetrahydropyrido [4′,3′:4,5]imidazo[1,2-b]pyridazin-6-ol [Example 43]”, for which the IC50 lay within 1 to 10 µM. As for “(+/−)-trans-9-(2,5-dimethylphenyl)-2-(4-(2-hydroxypropan-2-yl)phenyl)-6,7,8,9-tetrahydropyrido[4′,3′:4,5]imidazo[1,2-b]pyridazin-6-ol [Example 53]”, the IC50 fell in the range of 1 to 10 µM. The molecule “(+/−)-trans-9-(2-(difluoromethoxy)phenyl)-2-(4-(2-hydroxy-2-methylpropoxy)phenyl)-6,7,8,9-tetrahydropyrido[4′,3′:4,5]imidazo[1,2-b]pyridazin-6-ol [Example 52]” registered an IC50 of 1 to 10 µM. As for “(+/−)-trans-9-(4-fluoro-2-methylphenyl)-2-(4-(2-hydroxypropan-2-yl)phenyl)-6,7,8,9-tetrahydropyrido[4′,3′:4,5]imidazo[1,2-b]pyridazin-6-ol [Example 44]”, the figure is less than 1 µM.
